The compounds below were run against T1, ManH (Bacillus sp. N16-5, UniProt A0A140EH86) (assay: isothermal titration calorimetry). Details: 20 mM Tris-HCl pH 8.0, 200 mM NaCl, 30 °C; independent-site model.
T1 construct: without N-terminal signal peptide; pET-28a NcoI/BamHI, native stop codon in primer; E. coli BL21(DE3); anion exchange; primers give N-terminus (M)DENTGGN and C-terminus SLEGIE; full-length starts MNKKLWL by primer
T1 sequence (A0A140EH86 17-435): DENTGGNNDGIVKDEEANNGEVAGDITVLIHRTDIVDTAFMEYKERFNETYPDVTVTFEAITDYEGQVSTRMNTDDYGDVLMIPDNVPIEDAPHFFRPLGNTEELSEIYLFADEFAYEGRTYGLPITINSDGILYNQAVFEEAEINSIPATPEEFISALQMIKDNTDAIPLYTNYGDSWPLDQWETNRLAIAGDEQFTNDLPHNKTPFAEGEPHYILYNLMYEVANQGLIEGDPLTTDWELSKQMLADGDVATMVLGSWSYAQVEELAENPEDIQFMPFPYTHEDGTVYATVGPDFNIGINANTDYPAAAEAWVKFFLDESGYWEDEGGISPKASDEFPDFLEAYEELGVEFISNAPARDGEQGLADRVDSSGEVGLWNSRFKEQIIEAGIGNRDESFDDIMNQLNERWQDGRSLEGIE
Type: binding
Description: isothermal titration calorimetry on ManH

| Compound | Kd (1/Ka, μM) |
| --- | --- |
| galactosyl-mannotriose | 19.4 µM |
| OC[C@H]1O[C@@H](O[C@H]2[C@H](O)[C@H](O)[C@H](O[C@H]3[C@H](O)[C@H](O)C(O)O[C@@H]3CO)O[C@@H]2CO)[C@@H](O)[C@@H](O)[C@@H]1O (stereo partly shown) [mannotriose] | 3.8 µM |
| OC[C@H]1O[C@@H](O[C@H]2[C@H](O)[C@H](O)[C@H](O[C@H]3[C@H](O)[C@H](O)[C@H](O[C@H]4[C@H](O)[C@H](O)C(O)O[C@@H]4CO)O[C@@H]3CO)O[C@@H]2CO)[C@@H](O)[C@@H](O)[C@@H]1O (stereo partly shown) [mannotetraose] | 2.2 µM |
| OC[C@H]1O[C@@H](O[C@H]2[C@H](O)[C@H](O)[C@H](O[C@H]3[C@H](O)[C@H](O)[C@H](O[C@H]4[C@H](O)[C@H](O)[C@H](O[C@H]5[C@H](O)[C@H](O)C(O)O[C@@H]5CO)O[C@@H]4CO)O[C@@H]3CO)O[C@@H]2CO)[C@@H](O)[C@@H](O)[C@@H]1O (stereo partly shown) [mannopentose] | 0.8 µM |
